Experimental data published in PMC10114980, “Triple targeting of mutant EGFR^L858R/T790M, COX-2, and 15-LOX: design and synthesis of novel quinazolinone tethered phenyl urea derivatives for anti-inflammatory and anticancer evaluation” (Journal of Enzyme Inhibition and Medicinal Chemistry, 2023).

Legend:
ovine COX-1 = target: T1, ovine COX-1 (Ovis aries, UniProt P05979); assay: In vitro COX-1 inhibition assay kit (Cayman); type: biochemical; details: mean ± SEM, n = 3 replicates
T1 sequence (P05979 25-600): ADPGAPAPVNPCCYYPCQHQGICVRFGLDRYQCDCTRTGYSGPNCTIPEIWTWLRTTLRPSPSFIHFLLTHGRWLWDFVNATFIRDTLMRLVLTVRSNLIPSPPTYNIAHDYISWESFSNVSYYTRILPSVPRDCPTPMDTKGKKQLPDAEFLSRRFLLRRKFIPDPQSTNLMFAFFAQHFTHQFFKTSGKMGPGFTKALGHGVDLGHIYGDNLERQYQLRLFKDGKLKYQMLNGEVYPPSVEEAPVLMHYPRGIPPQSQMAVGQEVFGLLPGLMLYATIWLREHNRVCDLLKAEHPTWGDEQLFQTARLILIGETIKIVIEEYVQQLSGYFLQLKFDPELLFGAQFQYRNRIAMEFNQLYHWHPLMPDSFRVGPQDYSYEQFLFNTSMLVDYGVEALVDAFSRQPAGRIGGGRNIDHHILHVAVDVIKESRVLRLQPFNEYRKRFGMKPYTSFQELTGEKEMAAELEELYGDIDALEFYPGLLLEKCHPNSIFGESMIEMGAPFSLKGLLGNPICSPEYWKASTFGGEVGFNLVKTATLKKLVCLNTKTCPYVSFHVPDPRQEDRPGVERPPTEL
Method: The half-maximal inhibitory concentration (IC50, μM) was determined, and the COX-2 selectivity index (SI) was calculated as IC50 (COX-1)/IC50 (COX-2).

soybean 15-LOX = target: T2, soybean 15-LOX (Glycine max, UniProt P08170); assay: 15-LOX inhibitor screening assay (Cayman); type: biochemical; details: mean ± SEM, n = 3 replicates
T2 sequence (P08170 1-839): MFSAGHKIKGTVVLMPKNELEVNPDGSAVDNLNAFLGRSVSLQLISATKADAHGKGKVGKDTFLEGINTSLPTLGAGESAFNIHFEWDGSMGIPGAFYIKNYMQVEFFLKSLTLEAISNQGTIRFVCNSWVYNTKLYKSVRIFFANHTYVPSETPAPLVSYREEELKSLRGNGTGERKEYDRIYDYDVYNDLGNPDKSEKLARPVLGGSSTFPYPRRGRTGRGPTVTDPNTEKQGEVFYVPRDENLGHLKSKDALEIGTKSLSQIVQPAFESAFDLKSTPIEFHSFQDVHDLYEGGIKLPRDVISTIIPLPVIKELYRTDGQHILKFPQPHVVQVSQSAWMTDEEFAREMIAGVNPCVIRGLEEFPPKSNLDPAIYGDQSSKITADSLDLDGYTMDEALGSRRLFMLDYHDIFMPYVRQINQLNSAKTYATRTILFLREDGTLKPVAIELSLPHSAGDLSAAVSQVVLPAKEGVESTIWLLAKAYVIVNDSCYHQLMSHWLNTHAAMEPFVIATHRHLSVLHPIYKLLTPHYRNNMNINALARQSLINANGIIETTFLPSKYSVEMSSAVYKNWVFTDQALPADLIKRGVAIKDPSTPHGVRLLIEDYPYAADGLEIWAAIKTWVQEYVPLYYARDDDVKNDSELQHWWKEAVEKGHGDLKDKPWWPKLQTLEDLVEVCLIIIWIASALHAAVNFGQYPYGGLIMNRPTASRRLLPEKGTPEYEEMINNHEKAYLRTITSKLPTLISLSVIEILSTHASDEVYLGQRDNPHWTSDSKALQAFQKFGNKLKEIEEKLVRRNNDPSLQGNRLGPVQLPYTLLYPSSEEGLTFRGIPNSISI

wild-type EGFR = target: T3, wild-type EGFR (Homo sapiens, UniProt P00533); assay: In vitro EGFR inhibition assay, wild type; type: biochemical; details: read-out: EGFR^WT IC50
T3 construct: purchased AssayQuant Technologies, Inc. (Marlboro, MA, USA)

[1] = test system: LPS-induced IL-6 production in RAW 264.7 cells; assay: IL-6 production in LPS-activated RAW 264.7 cells (ELISA); type: cell-based; details: LPS-activated RAW 264.7 cells treated with 25 µM of the compound
A549/ATCC = assay: NCI single dose screen, A549/ATCC; type: cell-based; details: Homo sapiens, non-small cell lung cancer, single dose 10^−5 M, read-out: growth inhibition percentage
Method: (§1) Screening of the anticancer activity of the newly synthesised compounds (6a, 6c, 6d, 6e, 6j, 6l, 6m, 6n, 6o, and 6p) was performed by the US National Cancer Institute (NCI) using 60 different human tumour cell lines in accordance with standard procedures formerly reported.
(§2) In vitro anticancer screening was carried out for the selected compounds at a single dose (10^−5 M) against 60 different human tumour cell lines of nine different cancer cell types: leukaemia, lung, colon, CNS, melanoma, ovarian, renal, prostate, and breast cancers.

EKVX = assay: NCI single dose screen, EKVX; type: cell-based; details: Homo sapiens, non-small cell lung cancer, single dose 10^−5 M, read-out: growth inhibition percentage
Method: as §1, §2

HOP-62 = assay: NCI single dose screen, HOP-62; type: cell-based; details: Homo sapiens; HOP-62, non-small cell lung cancer; single dose 10^−5 M; read-out: growth inhibition percentage
Method: as §1, §2

NCI-H460 = assay: NCI single dose screen, NCI-H460; type: cell-based; details: Homo sapiens; NCI-H460, non-small cell lung cancer; single dose 10^−5 M; read-out: growth inhibition percentage
Method: as §1, §2

HCT-15 = assay: NCI single dose screen, HCT-15; type: cell-based; details: Homo sapiens; HCT-15, colon cancer; single dose 10^−5 M; read-out: growth inhibition percentage
Method: as §1, §2

SW-620 = assay: NCI single dose screen, SW-620; type: cell-based; details: Homo sapiens; SW-620, colon cancer; single dose 10^−5 M; read-out: growth inhibition percentage
Method: as §1, §2

SF-539 = assay: NCI single dose screen, SF-539; type: cell-based; details: Homo sapiens, read-out: growth inhibition percentage
Method: as §1, §2

SNB-19 = assay: NCI single dose screen, SNB-19; type: cell-based; details: Homo sapiens; SNB-19, CNS cancer; single dose 10^−5 M; read-out: growth inhibition percentage
Method: as §1, §2

MALME-3M = assay: NCI single dose screen, MALME-3M; type: cell-based; details: Homo sapiens, melanoma, single dose 10^−5 M, read-out: growth inhibition percentage
Method: as §1, §2

MDA-MB-435 = assay: NCI single dose screen, MDA-MB-435; type: cell-based; details: Homo sapiens; MDA-MB-435, melanoma; single dose 10^−5 M; read-out: growth inhibition percentage
Method: as §1, §2

UACC-257 = assay: NCI single dose screen, UACC-257; type: cell-based; details: Homo sapiens; UACC-257, melanoma; single dose 10^−5 M; read-out: growth inhibition percentage
Method: as §1, §2

A498 = assay: NCI single dose screen, A498; type: cell-based; details: Homo sapiens; A498, renal cancer; single dose 10^−5 M; read-out: growth inhibition percentage
Method: as §1, §2

MDA-MB-231/ATCC = assay: NCI single dose screen, MDA-MB-231/ATCC; type: cell-based; details: Homo sapiens, breast cancer, single dose 10^−5 M, read-out: growth inhibition percentage
Method: as §1, §2

T3 sequence (P00533 25-1210): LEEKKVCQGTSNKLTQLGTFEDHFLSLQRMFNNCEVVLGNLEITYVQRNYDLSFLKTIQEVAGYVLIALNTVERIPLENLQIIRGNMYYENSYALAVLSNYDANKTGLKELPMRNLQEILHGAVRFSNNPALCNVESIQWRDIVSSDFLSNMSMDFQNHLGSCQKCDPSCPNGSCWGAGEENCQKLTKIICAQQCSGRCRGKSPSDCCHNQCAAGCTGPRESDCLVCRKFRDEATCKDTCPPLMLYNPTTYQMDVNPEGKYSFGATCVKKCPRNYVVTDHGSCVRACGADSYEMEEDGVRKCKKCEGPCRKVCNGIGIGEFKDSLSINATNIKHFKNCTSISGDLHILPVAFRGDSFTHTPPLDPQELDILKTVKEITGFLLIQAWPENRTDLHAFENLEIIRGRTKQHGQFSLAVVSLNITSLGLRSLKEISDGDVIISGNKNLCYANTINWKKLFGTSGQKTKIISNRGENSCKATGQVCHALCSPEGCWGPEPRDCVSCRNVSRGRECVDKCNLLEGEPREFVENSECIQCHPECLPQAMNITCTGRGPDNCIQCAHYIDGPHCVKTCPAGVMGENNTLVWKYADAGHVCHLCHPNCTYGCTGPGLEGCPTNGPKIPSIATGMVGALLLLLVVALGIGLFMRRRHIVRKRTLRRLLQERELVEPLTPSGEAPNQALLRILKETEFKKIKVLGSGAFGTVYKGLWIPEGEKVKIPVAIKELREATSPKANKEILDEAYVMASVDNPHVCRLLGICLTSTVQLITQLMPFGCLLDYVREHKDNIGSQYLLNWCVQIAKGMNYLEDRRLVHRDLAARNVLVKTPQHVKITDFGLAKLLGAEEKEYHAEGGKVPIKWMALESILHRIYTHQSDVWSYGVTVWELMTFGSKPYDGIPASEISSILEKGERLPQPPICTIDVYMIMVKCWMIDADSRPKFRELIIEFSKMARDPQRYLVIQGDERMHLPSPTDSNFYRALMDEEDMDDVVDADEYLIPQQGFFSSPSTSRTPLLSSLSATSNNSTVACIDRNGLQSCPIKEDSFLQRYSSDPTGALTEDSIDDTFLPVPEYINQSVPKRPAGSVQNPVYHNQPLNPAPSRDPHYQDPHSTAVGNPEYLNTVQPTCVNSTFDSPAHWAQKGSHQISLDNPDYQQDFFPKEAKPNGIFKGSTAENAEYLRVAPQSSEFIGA

Row | Structure (SMILES) | IC50 (ovine COX-1) | IC50 (soybean 15-LOX) | IC50 (wild-type EGFR) | IL-6 concentration [1] | inhibition at 10 µM (A549/ATCC) | inhibition at 10 µM (EKVX) | inhibition at 10 µM (HOP-62) | inhibition at 10 µM (NCI-H460) | inhibition at 10 µM (HCT-15) | inhibition at 10 µM (SW-620) | inhibition at 10 µM (SF-539) | inhibition at 10 µM (SNB-19) | inhibition at 10 µM (MALME-3M) | inhibition at 10 µM (MDA-MB-435) | inhibition at 10 µM (UACC-257) | inhibition at 10 µM (A498) | inhibition at 10 µM (MDA-MB-231/ATCC) | melting point
1 | CN1c2ccccc2C(=O)N(NC(=O)Nc2ccc(F)cc2)C1c1ccccc1 (stereo not drawn) [Compound 6m, 1-(4-Fluorophenyl)-3-(1-methyl-4-oxo-2-phenyl-1,4-dihydroquinazolin-3(2H)-yl)urea] | 12.4 ± 2.74 µM | 2.23 ± 0.36 µM | > 100 µM | 290.7 ± 5.5 pg/mL | < 10% | 10.5% | < 10% | < 10% | 14.3% | < 10% | < 10% | < 10% | 10.8% | < 10% | < 10% | < 10% | 23% | 220 to 222 °C
2 | CN1c2ccccc2C(=O)N(NC(=O)Nc2ccccc2)C1c1ccccc1 (stereo not drawn) [Compound 6c, 1-(1-Methyl-4-oxo-2-phenyl-1,4-dihydroquinazolin-3(2H)-yl)-3-phenylurea] | 1 ± 1.78 µM | 1.36 ± 0.19 µM | > 100 µM | 468.4 ± 87.46 pg/mL | < 10% | < 10% | < 10% | < 10% | < 10% | < 10% | < 10% | < 10% | < 10% | < 10% | < 10% | < 10% | < 10% | 180 to 181 °C
3 | CN1c2ccccc2C(=O)N(NC(=O)Nc2ccccc2)C1c1ccc([N+](=O)[O-])cc1 (stereo not drawn) [Compound 6e, 1-(1-Methyl-2-(4-nitrophenyl)-4-oxo-1,4-dihydroquinazolin-3(2H)-yl)-3-phenylurea] | 9.53 ± 1.21 µM | 1.76 ± 0.27 µM | 48.7 ± 3.47 µM | 198.8 ± 6.08 pg/mL | < 10% | < 10% | < 10% | < 10% | < 10% | < 10% | < 10% | < 10% | < 10% | < 10% | < 10% | < 10% | < 10% | 241 to 243 °C
